Measured values taken from PMC10056485 (International Journal of Molecular Sciences, 2023).
“And” between values parts separate entries of the source, which are not always exact repeats. Equal entries are not always repeated. Where two headings read alike, the source gives them in different places. Marks after values point to notes of the source that are not given here.

Legend:
[1] = cited from earlier work
tumor growth = settings: combination of cabozantinib and irradiation, in vivo; cited from earlier work
[2] = metastatic renal cell carcinoma patients, cited from earlier work
[3] = Sprague-Dawley, rat, in vivo
Experimental: (§1) The HPLC system consisted of a chromatographic pump (LC-20AT), an online injector (SIL-20C) equipped with a 10 μL sample loop to inject the sample and an ultraviolet detector (SPD-M20A). […] Biochanin A was used as the internal standard (IS), and the retention time of biochanin A was 3.8 min (Figure 4).
(§2) A freely moving rat model was designed for the current study [19]. Briefly, the whole liver for the EBRT technique or central area 1.5 × 1.5 cm in size for the SBRT technique of rats was localized by computed tomography. For the whole liver field, the cranial margin was set 5 mm from the top of the diaphragm, and the caudal margin was set 5 mm lower than the liver margin. The whole liver was targeted for irradiation. […] The data were collected from six rats per group.
(§3) A radiation dose of 2 Gy was considered the daily conventional dose or the off-target dose around the target that received an ablation RT dose. Nine Gy was used to simulate the SBRT dose. […] Rats were initially anesthetized with pentobarbital (50 mg/kg, i.p.) and remained anesthetized throughout the experimental period. After the surgery, the rats were placed in an experimental cage and allowed to recover for 1 day. Cabozatinib was dissolved in triply deionized water and administered (6 mg/kg, p.o.) to the rats (n = 6 per group).
(§4) Blood samples were collected via polyethylene tubing (PE-50) implanted into the jugular vein of each rat in a heparin-rinsed vial. An aliquot of 100–120 µL of blood was collected at time intervals of 0, 5, 15, 30, 45, 60, 90, 120, 150, 180, 210 and 240 min following drug administration. At each time point, 200 μL of blood was drawn into heparin-rinsed Eppendorf tubes and then centrifuged at 13,000 rpm for 10 min at 4 °C to obtain plasma. Plasma was stored at −20 °C until analysis. Each collected blood sample was transferred to a heparinized microcentrifuge tube and centrifuged at 13,000 rpm for 10 min. The resulting plasma (50 μL) was then mixed with 150 μL of internal standard solution (10 μg/mL). The denatured protein precipitate was separated by vortexing for 20 s and centrifuged at 13,000 rpm for 10 min at 4 °C.
(§5) Pharmacokinetic parameters, including the area under the concentration versus time curve (AUC), clearance (CL), elimination half-life (𝑡1/2), volume of distribution at steady state (Vss) and mean residence time (MRT), were calculated using the pharmacokinetics calculation software WinNonlin Standard Edition, Version 1.1 (Scientific Consulting, Apex, NC, USA) by a compartmental method. Relative bioavailability (RB %) = (AUCirradiated/AUCcontrol) × 100.

[4] = Pharmacokinetics of cabozantinib in plasma of freely moving rats with or without liver radiotherapy; settings: for AUC(0-t): AUC0-T; for AUC(0-t) / Cmax / MRT / Tmax / Vss: rat plasma, 6 mg/kg p.o. q.d. 3 days
Experimental: as §1, §2, §3, §4, §5

[5] = Organ distribution (biodistribution) of cabozantinib in rats with or without radiotherapy; type: in vivo, Sprague–Dawley rats; settings: for Concentration of cabozantinib in brain / Concentration of cabozantinib in heart / Concentration of cabozantinib in kidney / Concentration of cabozantinib in liver / Concentration of cabozantinib in lung / Concentration of cabozantinib in spleen: rat, 6 mg/kg p.o. 3 days, six hours after administration
Experimental: The whole liver was targeted for irradiation. […] The data were collected from six rats per group.
Nine Gy was used to simulate the SBRT dose.
The brain, liver, heart, spleen, lung and kidney were collected and weighed. These collected samples were stored at −20 °C until analysis.
The thawed organ samples were homogenized in 50% aqueous acetonitrile (the ratio of sample weight to volume was 1:5), and the homogenate was centrifuged at 13,000× g for 10 min at 4 °C. The supernatant was collected, placed in brown Eppendorf tubes, and stored at −20 °C until analysis. Briefly, each organ sample (50 μL) was combined with 150 μL of IS solution (diethylstilbestrol) for protein precipitation. Finally, 20 μL of filtrate was subjected to HPLC analysis.

plasma protein = settings: cited from earlier work
[6] = system: triple-negative 4T1 cells; settings: combination of RT with cabozantinib, in vitro; cited from earlier work
[7] = design: method as in PMID 30649748; settings: cited from earlier work
[8] = cited from earlier work; remark: listed apart in the source
[9] = cited from earlier work; remark: listed apart in the source
[10] = design: method as in PMID 32533042; settings: cited from earlier work; for Complete recanalization rate: p = 0.014
[11] = Sprague-Dawley, rat, plasma, po, 6 mg/kg, RT 2Gy x 3 f'x concurrent
[12] = Sprague-Dawley, rat, plasma, po, 6 mg/kg, RT 2Gy x 3 f'x sequential
[13] = Sprague-Dawley, rat, plasma, po, 6 mg/kg, RT 9Gy x 3 f'x concurrent
[14] = Sprague-Dawley, rat, plasma, po, 6 mg/kg, RT 9Gy x 3 f'x sequential
[15] = Sprague-Dawley, rat, plasma, po, 6 mg/kg, cabozantinib only (no RT)
[16] = rats, RT9Gy×3 f'x sequential compared to RT9Gy×3 f'x concurrent regimen, p = 0.02
[17] = phase III study of HCC, cabozantinib alone

COc1cc2nccc(Oc3ccc(NC(=O)C4(C(=O)Nc5ccc(F)cc5)CC4)cc3)c2cc1OC [cabozantinib]
Half-life [1]: approximately 110 h | Increase of AUC of cabozantinib ([1]; liver function impaired): 63–81% | Time of second absorption peak after administration ([1]; plasma concentration–time profiles): approximately 24 h | Increase of AUC of cabozantinib ([1]; renal function impaired): 7–30% | Tumor growth control (tumor growth): not increased | Grade 3–4 AE rate ([2]; cabozantinib concurrent with SBRT): 3.6% | Grade 3–4 AE rate ([2]; cabozantinib concurrent with conventional RT): 6.3% | Decrease of Tmax [3]: 72.8% | Increase of CL [3]: 249.0% | Increase of Tmax [3]: 404.1% | concentration at 60 min ([4]; Sprague-Dawley, rat, plasma, po, 6 mg/kg): 800 ng/mL | AUC(0-t) [4, 11]: 5100 ng·h/mL | AUC(0-t) [4, 12]: 3900 ng·h/mL | AUC(0-t) [4, 13]: 4290 ng·h/mL | AUC(0-t) [4, 14]: 4180 ng·h/mL | AUC(0-t) [4, 15]: 4440 ng·h/mL | Cmax [4, 11]: 1600 ± 470 ng/mL | Cmax [4, 12]: 1360 ± 540 ng/mL | Cmax [4, 13]: 1370 ± 470 ng/mL | Cmax [4, 14]: 1350 ± 490 ng/mL | Cmax [4, 15]: 1440 ± 440 ng/mL | MRT [4, 11]: 13.7 h | MRT [4, 12]: 9.05 h | MRT [4, 13]: 11.2 h | MRT [4, 14]: 38.5 h | MRT [4, 15]: 26.7 h | Tmax [4, 11]: 0.611 h | Tmax [4, 12]: 3.08 h | Tmax [4, 13]: 0.639 h | Tmax [4, 14]: 2.92 h | Tmax [4, 15]: 2.25 h | Vss ([4]; RT 2Gy x 3 f'x concurrent): 3.942 ± 1.303 L/kg | Vss ([4]; RT 2Gy x 3 f'x sequential): 5.668 ± 2.22 L/kg | Vss ([4]; RT 9Gy x 3 f'x concurrent): 4.204 ± 1.272 L/kg | Vss ([4]; RT 9Gy x 3 f'x sequential): 3.153 ± 0.482 L/kg | Vss ([4]; cabozantinib only (no RT)): 4.831 ± 1.307 L/kg | Concentration of cabozantinib in brain ([5]; RT 2Gy concurrent): 0.00 ± 0.00 µg/mL or µg/g | Concentration of cabozantinib in heart ([5]; RT 2Gy concurrent): 0.52 ± 0.39 µg/mL or µg/g | Concentration of cabozantinib in kidney ([5]; RT 2Gy concurrent): 0.17 ± 0.06 µg/mL or µg/g | Concentration of cabozantinib in liver ([5]; RT 2Gy concurrent): 0.39 ± 0.16 µg/mL or µg/g | Concentration of cabozantinib in lung ([5]; RT 2Gy concurrent): 0.40 ± 0.34 µg/mL or µg/g | Concentration of cabozantinib in spleen ([5]; RT 2Gy concurrent): 0.16 ± 0.03 µg/mL or µg/g | Concentration of cabozantinib in brain ([5]; RT 2Gy sequential): 0.00 ± 0.00 µg/mL or µg/g | Concentration of cabozantinib in heart ([5]; RT 2Gy sequential): 0.26 ± 0.11 µg/mL or µg/g | Concentration of cabozantinib in kidney ([5]; RT 2Gy sequential): 0.29 ± 0.09 ^a µg/mL or µg/g | Concentration of cabozantinib in liver ([5]; RT 2Gy sequential): 0.47 ± 0.18 µg/mL or µg/g | Concentration of cabozantinib in lung ([5]; RT 2Gy sequential): 0.35 ± 0.19 µg/mL or µg/g | Concentration of cabozantinib in spleen ([5]; RT 2Gy sequential): 0.16 ± 0.05 µg/mL or µg/g | Concentration of cabozantinib in brain ([5]; RT 9Gy concurrent): 0.00 ± 0.00 µg/mL or µg/g | Concentration of cabozantinib in heart ([5]; RT 9Gy concurrent): 0.16 ± 0.05 µg/mL or µg/g | Concentration of cabozantinib in kidney ([5]; RT 9Gy concurrent): 0.16 ± 0.07 µg/mL or µg/g | Concentration of cabozantinib in liver ([5]; RT 9Gy concurrent): 0.28 ± 0.14 µg/mL or µg/g | Concentration of cabozantinib in lung ([5]; RT 9Gy concurrent): 0.16 ± 0.10 µg/mL or µg/g | Concentration of cabozantinib in spleen ([5]; RT 9Gy concurrent): 0.20 ± 0.07 µg/mL or µg/g | Concentration of cabozantinib in brain ([5]; RT 9Gy sequential): 0.00 ± 0.00 µg/mL or µg/g | Concentration of cabozantinib in heart ([5]; RT 9Gy sequential): 0.29 ± 0.09 *^b µg/mL or µg/g | Concentration of cabozantinib in kidney ([5]; RT 9Gy sequential): 0.30 ± 0.14 ^b µg/mL or µg/g | Concentration of cabozantinib in liver ([5]; RT 9Gy sequential): 0.59 ± 0.24 ^b µg/mL or µg/g | Concentration of cabozantinib in lung ([5]; RT 9Gy sequential): 0.36 ± 0.08 *^b µg/mL or µg/g | Concentration of cabozantinib in spleen ([5]; RT 9Gy sequential): 0.16 ± 0.04 µg/mL or µg/g | Concentration of cabozantinib in brain ([5]; cabozantinib only (no RT)): 0.00 ± 0.00 µg/mL or µg/g | Concentration of cabozantinib in heart ([5]; cabozantinib only (no RT)): 0.14 ± 0.06 µg/mL or µg/g | Concentration of cabozantinib in kidney ([5]; cabozantinib only (no RT)): 0.22 ± 0.06 µg/mL or µg/g | Concentration of cabozantinib in liver ([5]; cabozantinib only (no RT)): 0.44 ± 0.19 µg/mL or µg/g | Concentration of cabozantinib in lung ([5]; cabozantinib only (no RT)): 0.25 ± 0.05 µg/mL or µg/g | Concentration of cabozantinib in spleen ([5]; cabozantinib only (no RT)): 0.12 ± 0.09 µg/mL or µg/g | Increase of biodistribution in the heart ([5]; rats, RT2Gy×3 f'x concurrent regimen, printed as compared to the concurrent regimen, p = 0.04): 271.4% and 271% | Increase of biodistribution in the lung ([5]; rats, RT9Gy×3 f'x sequential compared to RT9Gy×3 f'x concurrent regimen, p = 0.004): 125% | Increase of biodistribution in the heart [5, 16]: 81.3% | Increase of biodistribution in the liver [5, 16]: 110.5% | Increase of biodistribution in the kidneys ([5]; rats, RT9Gy×3 f'x sequential compared to RT9Gy×3 f'x concurrent regimen, p = 0.048): 87.5% | Increase of biodistribution in the heart ([5]; rats, RT9Gy×3 f'x sequential regimen compared with control group, p = 0.01): 107.1% and 107% | Increase of biodistribution in the lung ([5]; rats, RT9Gy×3 f'x sequential regimen compared with control group, p = 0.02): 44% | Detection of cabozantinib in the brain ([5]; rats, any of the groups): No cabozantinib was detected | Increase of kidney biodistribution ([5]; rats, sequential RT2Gy×3 f'x compared to control group, p = 0.02): 31.8% and 32% | Plasma protein binding (plasma protein): ≥ 99.7% | Effect on clonogenic survival [6]: a synergistic effect was found | Osteonecrosis of jaw [7]: 1% | Risk of grade 3 or above hemorrhagic events [7]: 2.1–3% | Serious gastrointestinal perforation or fistula [7]: 1.2–3% | Rate of grade 3 or 4 adverse events ([8]; cabozantinib alone for HCC treatment): 10–17% | Serious adverse events rate ([8]; cabozantinib for HCC treatment): 12% | Grade 3 or 4 diarrhea [8, 17]: 10% | Grade 3 or 4 fatigue [8, 17]: 10% | Grade 3 or 4 hypertension [8, 17]: 16% | Grade 3 or 4 increased aspartate aminotransferase level [8, 17]: 12% | Grade 3 or 4 palmar–plantar erythrodysesthesia [8, 17]: 17%

COc1cc2nccc(Oc3ccc(NC(=O)NC4CC4)c(Cl)c3)c2cc1C(N)=O [lenvatinib]
Increase of AUC of lenvatinib ([9]; sequential RT9Gyx3f'x group): 2 fold

CNC(=O)c1cc(Oc2ccc(NC(=O)Nc3ccc(Cl)c(C(F)(F)F)c3)cc2)ccn1 [sorafenib]
Complete recanalization rate, SBRT relative to conventional RT ([10]; SBRT with sorafenib versus conventional RT): 3 fold | Complete recanalization rate ([10]; SBRT with sorafenib): 28% | Complete recanalization rate ([10]; conventional RT with sorafenib): 8% | Increase of AUC of sorafenib ([9]; concurrent RT9Gy groups): 4 fold | Increase of AUC of sorafenib ([9]; sequential RT9Gy group): 1.6 fold

CNC(=O)c1cc(Oc2ccc(NC(=O)Nc3ccc(Cl)c(C(F)(F)F)c3)c(F)c2)ccn1 [regorafenib]
Increase of AUC of regorafenib ([9]; sequential RT9Gyx3f'x group): 1.3 fold
